Here are results for five compounds from patent publication US9493477B2, “Compositions comprising enzyme-cleavable ketone-modified opioid prodrugs and optional inhibitors thereof” (priority 2009, dated 2016).

The nature of series [1]: In vitro stability of prodrug to household chemicals and enzyme preparations. Type of series: physicochemical. Conditions: vodka, baking soda, WINDEX, vinegar (RT or 80° C.) and GNC Super Digestive, tenderizer, subtilisn (RT), 1 or 24 hr. As to the method: Samples were incubated as described and aliquots removed at 1 hr and 24 hr and stabilized by adding each to a solution of 50% or 100% of 85% phosphoric acid solution to achieve a final pH of less than or equal to pH 4. The stabilized aliquots were then diluted 4- to 6-fold with water, vortex-mixed and applied to HPLC.
Samples were incubated as described. Aliquots were removed at 1 hr and 24 hr and stabilized by adding each to a solution of 50% or 100% of 85% phosphoric acid solution to achieve a final pH of less than or equal to pH 4. The stabilized aliquots were then diluted 4- to 6-fold with water, vortex-mixed and applied to HPLC.

In series [2] the target is T1, human μ-opioid receptor (Homo sapiens, UniProt P35372). Put plainly: In vitro human μ-opioid receptor binding assay ([3H]DAMGO, recombinant HEK-293 cells). Conditions: from Table 8.
T1 sequence (P35372 whole entry): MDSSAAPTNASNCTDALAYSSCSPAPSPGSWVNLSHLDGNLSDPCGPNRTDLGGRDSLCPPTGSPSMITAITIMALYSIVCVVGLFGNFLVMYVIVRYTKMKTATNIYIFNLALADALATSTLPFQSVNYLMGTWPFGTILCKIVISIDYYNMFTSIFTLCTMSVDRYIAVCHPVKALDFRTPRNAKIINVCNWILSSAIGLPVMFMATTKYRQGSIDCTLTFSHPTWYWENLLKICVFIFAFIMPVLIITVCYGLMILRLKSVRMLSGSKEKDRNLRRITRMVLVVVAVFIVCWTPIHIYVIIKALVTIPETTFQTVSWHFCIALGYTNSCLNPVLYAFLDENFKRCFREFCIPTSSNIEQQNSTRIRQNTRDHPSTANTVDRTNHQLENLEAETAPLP
Series [3] in a line: Pharmacokinetics following PO administration to rats (drug released into plasma from prodrug, or oxycodone). Conditions: for oxycodone plasma concentrations compared to administration of oxycodone: PO prodrug versus PO oxycodone 10 mg/kg (Example 15). Format: in vivo, rat.
Method: At specified time points, blood samples were drawn, harvested for plasma via centrifugation at 5,400 rpm at 4° C. for 5 min, and 100 microliters (μl) plasma transferred from each sample into a fresh tube containing 1 μl of formic acid. The tubes were vortexed for 5-10 seconds, immediately placed in dry ice and then stored until analysis by high performance liquid chromatography/mass spectrometry (HPLC/MS).
At specified time points, blood samples were drawn, harvested for plasma via centrifugation at 5,400 rpm at 4° C. for 5 min, and 100 microliters (μl) plasma transferred from each sample into a fresh tube containing 2 μl of 50% formic acid. The tubes were vortexed for 5-10 seconds, immediately placed in dry ice and then stored in −80° C. freezer until analysis by HPLC/MS.
At specified time points, blood samples were drawn, harvested for plasma via centrifugation at 5,400 rpm at 4° C. for 5 min, and 100 μl plasma transferred from each sample into a fresh tube containing 2 μl of 50% formic acid. The tubes were vortexed for 5-10 seconds, immediately placed in dry ice and then stored in −80° C. freezer until analysis by HPLC/MS.
Series [4] can be described thus: Pharmacokinetics following IV administration of prodrug to rats. Format: in vivo, rat.
In series [5] the target is T2, trypsin from bovine pancreas (Bos taurus, UniProt P00760).
T2 construct: purchased Sigma-Aldrich T8003; host or cells: bovine pancreas
T2 sequence (P00760 24-246): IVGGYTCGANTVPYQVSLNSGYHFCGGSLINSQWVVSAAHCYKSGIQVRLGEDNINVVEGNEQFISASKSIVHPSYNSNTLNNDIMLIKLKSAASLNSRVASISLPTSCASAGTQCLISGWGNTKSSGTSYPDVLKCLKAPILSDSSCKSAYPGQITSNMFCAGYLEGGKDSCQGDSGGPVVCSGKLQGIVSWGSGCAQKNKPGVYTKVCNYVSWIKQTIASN
Nature of the series: In vitro trypsin-mediated release of drug from prodrug, without or with trypsin inhibitor Compound 109. Type of series: biochemical.
Method: The reactions were conducted at 37° C. for 24 hr. Samples were collected at specified time points, transferred into 0.5% formic acid in acetonitrile to stop trypsin activity and stored at less than −70° C. until analysis by LC-MS/MS.
Other reaction and sample treatment conditions were as described above.

Series [6] in a line: In vivo tolerability of Compound KC-3 IV in rats. More on the design: species or system rat. Conditions: IV KC-3 71 mg/kg (97 μmol/kg), 4 rats dosed, observed up to 24 hours. As to the method: Male naïve Sprague-Dawley rats, 4 per dose, were used in the study. Rats were weighed, and then placed under a heat lamp for 15-20 minutes to dilate the lateral tail veins. […] Before dosing, rats were placed in Broome restrainers and the drug was introduced into one of the tail veins using a syringe and needle. […] Blood samples were collected 5 minutes post-dose via the saphenous vein. The rats were observed up to 24 hours.

In series [7] the target is T1, human μ-opioid receptor. Type of series: cell-based. More on the design: expressed in transfected cells; host or cells: CHO. The settings on record: Experiment 3; EC50 ratio, oxycodone or hydrocodone to its prodrug.
Method: The control reaction included 1 μM DAMGO. The reaction mixtures were incubated at 37° C. for 10 min, and the reaction product was cyclic AMP (cAMP). The samples were submitted to homogeneous time resolved fluorescence (HTRF®). EC50 values (concentration producing a half-maximal specific response) were determined by non-linear regression fit using the Hillplot software.
[8] abbreviates: rats, IV Compound KC-2 10 mg/kg or equimolar oxycodone, 15 minutes.
Where [9] appears, read: 241 BAEE U trypsin/mL, no inhibitor.
The mark [10] stands for this setting: 4815 BAEE U trypsin/mL, no inhibitor.

The structures appear in SMILES notation. Read-outs that look alike come from different tables or passages of the source.

For `COc1ccc2c3c1O[C@H]1C(OC(=O)N(C)CCNC(=O)[C@H](CCCNC(=N)N)NC(C)=O)=CC[C@@]4(O)C(C2)N(C)CC[C@]314` [Compound KC-2, Oxycodone 6-(N-methyl-N-(2-N′-acetylarginylamino)) ethylcarbamate], in series [1], the conversion to oxycodone result was “less than 10%”. In addition, in series [2], the “affinity for the μ-opioid receptor, fold less than that of oxycodone” value is listed as “about 2 fold”. The “relative plasma/CSF partitioning coefficient to oxycodone (fold less CSF penetrant than oxycodone)” value (Table 10, 439/3.8) is reported as “about 116 fold”. The “Compound conc. in Plasma” value (male, Sprague Dawley, rat, in vivo) is listed as 27,200 ng/mL. For the same compound, under setting [8], the “Compound conc. in CSF” value came out at 61.9 ng/mL and the Plasma/CSF partitioning coefficient is given as 439. The “plasma concentrations of oxycodone versus Compound KC-2 dose” value in series [3] (PO 1.3 to 50 mg/kg, Table 6, FIG. 9) is “increase proportionally”. The “oxycodone plasma concentrations compared to administration of oxycodone” value in series [3] was “suppressed Cmax and delayed Tmax”. Also, the “Cmax of Compound KC-2 in plasma” value in series [4] (IV Compound KC-2 2 mg/kg, average ± sd, 4 rats) is given as 2680 ± 755 ng/mL. Further, the “Rate of oxycodone formation” value in series [5] (no trypsin inhibitor, 0.761 mM prodrug, 0.0228 mg/mL trypsin, 37° C.) was 37.4 ± 0.9 umols/h/umol trypsin.

Take `COc1ccc2c3c1O[C@H]1C(OC(=O)N(C)CCNC(=O)[C@H](CCCNC(=N)N)NC(=O)CC(=O)O)=CC[C@@]4(O)[C@@H](C2)N(C)CC[C@]314` [Compound KC-3, N—{(S)-4-guanidino-1-[2-(methyl-[(5R,9R,13S,14S)-4,5a-epoxy-6,7-didehydro-14-hydroxy-3-methoxy-17-methylmorphinan-6-oxy]carbonyl-amino)-ethylcarbamoyl]-butyl}-malonamic acid]: the “relative plasma/CSF partitioning coefficient to oxycodone (fold less CSF penetrant than oxycodone)” value (Table 15, 1,737/4.8) was “about 364 fold”. The “plasma concentrations of oxycodone versus Compound KC-3 dose” value in series [3] (PO 1.4 to 46 mg/kg, Table 11, FIG. 11) was “increase proportionally”. The Clinical observations in series [6] is 2 normal and 2 with ataxia which. Besides, the “Rate of oxycodone formation” value in series [5] (setting [9]) is reported as 0.0684 ± 0.0009 umol/h/ BAEE U.

In the case of `COc1ccc2c3c1OC1C(OC(=O)N(C)CCNC(=O)C(CCCNC(=N)N)NC(=O)CC(=O)O)=CCC4C(C2)N(C)CCC314` [Compound KC-4, N—((S)-1-{2-[(Dihydrocodein-6-enyloxycarbonyl)-methylamino]-ethylcarbamoyl-4-guanidino}-butyl)-malonamic acid], the Drug/prodrug relative potency in series [7] is 15. Also, the “KC-4 Cmax ± sd” value in series [4] (IV KC-4 2 mg/kg ([…])) is on record as 3960 ± 570 ng/mL. Besides, the results for the “Rate of hydrocodone formation” value in series [5] (setting [9]) and in series [5] (setting [10]) were 0.0911 ± 0.015 umol/h/ BAEE U and 0.0137 ± 0.0014 umol/h/ BAEE U, respectively.

Consider `COc1ccc2c3c1O[C@H]1C(OC(=O)N(CCCCCC(=O)O)CCNC(=O)[C@H](CCCNC(=N)N)NC(C)=O)=CC[C@@]4(O)[C@@H](C2)N(C)CC[C@]314` [Compound KC-5, 6-{[2-(2-Acetylamino-5-guanidino-pentanoylamino)-ethyl]-[(5R,9R,13S,14S)-4,5a-epoxy-6,7-didehydro-14-hydroxy-3-methoxy-17-methylmorphinan-6-oxy]-1-enyloxycarbonyl-amino}-hexanoic acid], for which, under “Table 22, 1,508/4.8”, the “relative plasma/CSF partitioning coefficient to oxycodone (fold less CSF penetrant than oxycodone)” value is recorded as “about 316 fold”. Further, the “oxycodone plasma concentrations compared to administration of oxycodone” value in series [3] was “suppressed Cmax and AUC and delayed Tmax”. Besides, in series [5] (setting [9]), the “Rate of oxycodone formation” value stood at 0.135 ± 0.005 umol/h/ BAEE U.

For the compound `COc1ccc2c3c1O[C@H]1C(OC(=O)N(C)C[C@H](NC(=O)[C@H](CCCNC(=N)N)NC(C)=O)C(=O)N(C)CC(=O)O)=CC[C@@]4(O)[C@@H](C2)N(C)CC[C@]314` [Compound KC-6], the “relative plasma/CSF partitioning coefficient to oxycodone (fold less CSF penetrant than oxycodone)” value (Table 25, 815/4.8) is on record as “about 171 fold”. For the same compound, the “oxycodone plasma concentrations compared to administration of oxycodone” value in series [3] was “suppressed Cmax and AUC and delayed Tmax”. Moreover, the results for the “Rate of oxycodone formation” value in series [5] (setting [9]) and in series [5] (setting [10]) were 0.0118 ± 0.0042 umol/h/ BAEE U and 0.00571 ± 0.0002 umol/h/ BAEE U, respectively.
